According to US8759295B2, “Peptide-peptidase inhibitor conjugates and methods of using same” (Amylin Pharmaceuticals, LLC, priority 2006, dated 2014):
Starred links: 1 amine or outer side, 2 acyl side, 3 side chain; linkers in the order of their positions; H or OH if unused. Non-standard residues stand in square brackets, D forms with d. Residues, ends and D or L forms follow the SMILES beside them. *: point of attachment. Pyrrolidine(2S-CN) = N#C[C@@H]1CCCN1*; εLys = N[C@@H](CCCCN[*:1])C(=O)[*:2]; AEEA = NCCOCCOCC(=O)O

Legend:
plasma carboxypeptidase = assay: Carboxypeptidase activity assay in human plasma, PYY(3-35) formation; assay type: biochemical; conditions: for inhibition of formation of PYY(3-35): 0.5 mM, human plasma
Description: Carboxypeptidase activity assays were performed in the presence of various agents to test for carboxypeptidase inhibitor activity of the agents.
The remainder of the sample was placed in an incubator at 37° C., mixing at 600 RPM for sixty minutes. At 10 minute intervals, a 100 μL sample of the mixture was removed and transferred to a separate microcentrifuge tubes. Following the transfer of the 100 μL sample at the zero time point and each 10 minute interval, each collected sample was extracted by slow addition of 100 μl cold 0.2% formic acid:acetonitrile, while mixing. After addition of the acetonitrile solution, the sample was vortex mixed at high speed for 15 seconds. The extracted samples were stored at −20° C. for at least 20 minutes and then centrifuged at 11,000×g for 10 minutes at 5° C. The supernatant of each sample was transferred to a new microcentrifuge tube, centrifuged again, and finally transferred for LC/MS analysis. The MS analysis was a Q1 single ion monitoring method that detects the most intense ion of the parent molecule and the peptide fragment of interest.

[1] = human, kidney or brush border membranes, 4 h, pH 7.4
Description: The tubes were incubated in VorTemp 56™ (Eurotech Labs, UK) at 37° C. vortexed at 500 RPM. At time points of 0, 1, 2, 3, 4, and 5 hours, 200 μl STOP solution (50% ACN, 1% formic acid) was added to a given tube, and the samples were allowed to incubate until the end of the experiment. The samples were collected after 5 hours, centrifuged, and 200 μl of the supernatants were transferred into mass spectrometry vials. The intensities of the mother ions in each vial were analyzed with API 150EX™ mass spectrometer (Applied Biosystems, Foster City, Calif.) and quantified using the ANALYST™ program.
The hKBBM assay was also performed in the presence of valinepyrrolidide, a DPP-IV inhibitor.

NIH/Swiss mice = assay: Oral glucose tolerance test (OGTT), glucose lowering; conditions: IP; for glucose lowering in OGTT (FIGS. 7, 8): 2 hour fasted mice
[2] = system: Dahl salt-sensitive (DSS) male rats; assay: Congestive heart failure (CHF) in vivo assay; conditions: week 5, high-salt diet, 10 μg/kg/day sc infusion
Description: In this assay, Dahl salt-sensitive (DSS) male rats were weaned at 21 days of age, maintained on a low-salt (LS) diet (0.2% NaCl) for 2 weeks. Rats were anesthetized with ketamine/xylazine (50 mg/kg/10 mg/kg, IP) and telemetry transmitters (Data Sciences, Inc.) were inserted to the aortic artery when rats were at 5 weeks of age. After surgery, the rats were allowed 10 days to recuperate before their BP (systolic and diastolic pressures) was recorded.
HS control animals (n=10 rats) were administered vehicle (50% DMSO) and fed HS in the same manner. LS control animals (n=5 rats) were maintained on the LS diet.

[3] = molecular target: T1, human GIP receptor (HEK-GIPR membranes) (Homo sapiens, UniProt P48546); assay: GIP receptor binding displacement assay (RBA); conditions: read-out: GIP RBA % inhibition at 10 nM; 10 nM conjugate, 30 pM 125I-GIP
T1 construct: expressed in transfected cells
T1 sequence (P48546 22-466): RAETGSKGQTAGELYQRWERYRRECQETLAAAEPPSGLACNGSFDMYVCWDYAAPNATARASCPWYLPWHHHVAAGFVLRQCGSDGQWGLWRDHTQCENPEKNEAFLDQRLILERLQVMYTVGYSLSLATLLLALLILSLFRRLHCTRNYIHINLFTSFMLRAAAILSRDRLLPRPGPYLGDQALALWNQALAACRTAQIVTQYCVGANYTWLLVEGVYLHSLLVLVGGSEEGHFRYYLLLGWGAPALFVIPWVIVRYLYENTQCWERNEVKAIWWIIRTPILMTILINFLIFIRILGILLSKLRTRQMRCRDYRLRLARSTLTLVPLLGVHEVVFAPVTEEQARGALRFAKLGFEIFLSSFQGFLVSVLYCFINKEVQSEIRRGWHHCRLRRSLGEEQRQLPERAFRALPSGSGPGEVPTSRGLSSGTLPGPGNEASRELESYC
Description: Membrane fractions were prepared from confluent cell cultures of HEK-GIPR, snap frozen, and stored at −80° C. until use. […] Reactions were allowed to proceed to equilibrium for 90 minutes at room temperature with constant shaking. The reaction mixtures were then filtered through 96-well glass fiber filter plates separating bound and unbound fractions of radioligand.

Recombinant DPP-IV = Recombinant DPP-IV (Homo sapiens, UniProt P27487); assay: DPP-IV inhibition assay with chromogenic substrate; assay type: biochemical; set-up: purchased Chemicon International, Inc., Temecula, Calif; conditions: mean SEM of at least three determinations
Description: The reactions were initiated by adding 1 μl DPP-IV enzyme (0.05 mU) into each well and the absorbance at 410 nm was measured with 20-sec intervals over a 30-min period using a SpectraMax plate reader (Molecular Devices, Corp., Sunnyvale, Calif.). The velocities of each reaction at different inhibitor concentrations were calculated and the reciprocal velocities were plotted against inhibitor concentrations in Dixon graphs. The IC50 values of reaction velocities were calculated through fitting the plots with linear equation.
The IC50 (nM) values in Table 5 are expressed as the mean SEM of at least three independent determinations.

Recombinant DPP-IV, sequence (P27487 whole entry, species assumed): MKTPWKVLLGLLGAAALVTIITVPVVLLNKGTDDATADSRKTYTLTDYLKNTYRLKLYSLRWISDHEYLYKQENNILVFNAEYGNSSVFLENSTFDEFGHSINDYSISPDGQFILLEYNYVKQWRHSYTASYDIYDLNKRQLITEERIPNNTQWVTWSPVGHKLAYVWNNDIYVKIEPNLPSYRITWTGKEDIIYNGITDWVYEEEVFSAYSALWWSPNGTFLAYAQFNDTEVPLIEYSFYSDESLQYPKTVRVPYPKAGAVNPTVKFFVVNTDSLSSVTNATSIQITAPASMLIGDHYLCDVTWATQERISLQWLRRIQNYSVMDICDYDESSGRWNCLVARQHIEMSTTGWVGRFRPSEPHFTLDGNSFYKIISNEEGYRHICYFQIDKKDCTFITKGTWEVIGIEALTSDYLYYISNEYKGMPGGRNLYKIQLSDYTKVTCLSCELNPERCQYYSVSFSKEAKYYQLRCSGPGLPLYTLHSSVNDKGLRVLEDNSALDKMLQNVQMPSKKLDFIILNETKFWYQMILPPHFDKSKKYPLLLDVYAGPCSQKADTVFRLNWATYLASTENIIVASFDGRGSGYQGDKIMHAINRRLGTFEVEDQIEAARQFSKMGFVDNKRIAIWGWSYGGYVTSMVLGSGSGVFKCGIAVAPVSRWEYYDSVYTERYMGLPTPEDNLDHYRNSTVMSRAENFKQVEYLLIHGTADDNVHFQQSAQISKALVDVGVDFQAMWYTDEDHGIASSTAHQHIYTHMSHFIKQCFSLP

Compound: NCCc1ccc(S(=O)(=O)F)cc1 [AEBSF, 4-(2-aminoethyl)-benzenesulfonylfluoride, reference compound]
- inhibition of plasma carboxypeptidase activity (plasma carboxypeptidase; protease inhibitor at 1 mM): inhibited

Compound: CC[C@H](C)[C@H](NC(=O)[C@H](Cc1ccccc1)NC(=O)[C@H](CCC(=O)O)NC(=O)[C@H](CCCCN)NC(=O)[C@H](C)NC(=O)[C@H](C)NC(=O)[C@H](CCC(N)=O)NC(=O)CNC(=O)[C@H](CCC(=O)O)NC(=O)[C@H](CC(C)C)NC(=O)[C@H](Cc1ccc(O)cc1)NC(=O)[C@H](CO)NC(=O)[C@H](CO)NC(=O)[C@@H](NC(=O)[C@H](CC(=O)O)NC(=O)[C@H](CO)NC(=O)[C@@H](NC(=O)[C@H](Cc1ccccc1)NC(=O)[C@@H](NC(=O)CNC(=O)[C@H](CCC(=O)O)NC(=O)[C@H](C)NC(=O)[C@H](Cc1c[nH]cn1)NC(=O)COCCOCCNC(=O)[C@@H]1CCCN1C(=O)[C@H](C)NC(CCc1ccccc1)C(=O)O)[C@@H](C)O)[C@@H](C)O)C(C)C)C(=O)N[C@@H](C)C(=O)N[C@@H](Cc1c[nH]c2ccccc12)C(=O)N[C@@H](CC(C)C)C(=O)N[C@H](C(=O)N[C@@H](CCCCN)C(=O)NCC(=O)N[C@@H](CCCNC(=N)N)C(N)=O)C(C)C (stereo partly drawn) [Compound 4983, (R,S)-1-[N^2-(1-carboxy-3-phenylpropyl)-L-ala]-L-pro-8-amino-3,6-dioxaoctanoyl-GLP-1-(7-36) amide]
- intact conjugate compound present [1]: greater than 80%
- glucose lowering in OGTT (FIGS. 7, 8) (NIH/Swiss mice): retain the glucose-lowering activity of GLP-1

Compound: CC[C@H](C)[C@H](NC(=O)[C@H](Cc1ccccc1)NC(=O)[C@H](CCC(=O)O)NC(=O)[C@H](CCCCN)NC(=O)[C@H](C)NC(=O)[C@H](C)NC(=O)[C@H](CCC(N)=O)NC(=O)CNC(=O)[C@H](CCC(=O)O)NC(=O)[C@H](CC(C)C)NC(=O)[C@H](Cc1ccc(O)cc1)NC(=O)[C@H](CO)NC(=O)[C@H](CO)NC(=O)[C@@H](NC(=O)[C@H](CC(=O)O)NC(=O)[C@H](CO)NC(=O)[C@@H](NC(=O)[C@H](Cc1ccccc1)NC(=O)[C@@H](NC(=O)CNC(=O)[C@H](CCC(=O)O)NC(=O)[C@H](C)NC(=O)[C@H](Cc1c[nH]cn1)NC(=O)COCCOCCNC(=O)COCCOCCNC(=O)[C@@H]1CCCN1C(=O)[C@H](C)NC(CCc1ccccc1)C(=O)O)[C@@H](C)O)[C@@H](C)O)C(C)C)C(=O)N[C@@H](C)C(=O)N[C@@H](Cc1c[nH]c2ccccc12)C(=O)N[C@@H](CC(C)C)C(=O)N[C@H](C(=O)N[C@@H](CCCCN)C(=O)NCC(=O)N[C@@H](CCCNC(=N)N)C(N)=O)C(C)C (stereo partly drawn) [Compound 4984, (R,S)-1-[N^2-(1-carboxy-3-phenylpropyl)-L-ala]-L-pro-8-amino-3,6-dioxaoctanoyl-8-amino-3,6-dioxaoctanoyl-GLP-1-(7-36) amide]
- intact conjugate compound present [1]: greater than 80%
- glucose lowering in OGTT (FIGS. 7, 8) (NIH/Swiss mice): retain the glucose-lowering activity of GLP-1
- duration of glucose lowering in OGTT (NIH/Swiss mice; 240 minutes sample): prolonged effect 4 hours after dosing

Compound: CC[C@H](C)[C@H](NC(=O)[C@H](Cc1ccccc1)NC(=O)[C@H](CC(C)C)NC(=O)[C@H](CCCNC(=N)N)NC(=O)[C@@H](NC(=O)[C@H](C)NC(=O)[C@H](CCC(=O)O)NC(=O)[C@H](CCC(=O)O)NC(=O)[C@H](CCC(=O)O)NC(=O)[C@H](CC(C)C)NC(=O)[C@H](CCC(N)=O)NC(=O)[C@H](CCCCN)NC(=O)[C@H](CO)NC(=O)[C@H](CC(C)C)NC(=O)[C@H](CC(=O)O)NC(=O)[C@H](CO)NC(=O)[C@@H](NC(=O)[C@H](Cc1ccccc1)NC(=O)[C@@H](NC(=O)CNC(=O)[C@H](CCC(=O)O)NC(=O)CNC(=O)[C@@H](N)Cc1c[nH]cn1)[C@@H](C)O)[C@@H](C)O)C(C)C)C(=O)N[C@@H](CCC(=O)O)C(=O)N[C@@H](Cc1c[nH]c2ccccc12)C(=O)N[C@@H](CC(C)C)C(=O)N[C@@H](CCCCN)C(=O)N[C@@H](CCC(N)=O)C(=O)NCC(=O)NCC(=O)N1CCC[C@H]1C(=O)N[C@@H](CO)C(=O)N[C@@H](CCCCN)C(=O)N[C@@H](CCC(=O)O)C(=O)N[C@H](C(=O)N[C@H](C(=O)N[C@@H](CO)C(=O)NCCOCCOCCOCC(=O)NCCOCCOCC(=O)NCCCC[C@H](NC(CCc1ccccc1)C(=O)O)C(=O)N1CCC[C@H]1C(=O)O)[C@@H](C)CC)[C@@H](C)CC (some centres unmarked) [Compound 5715]
- mean diastolic blood pressure [2]: 112 mmHg
- mean heart rate [2]: 381
- mean systolic blood pressure [2]: 161 mmHg

Compound: CNC(Cc1ccc(O)cc1)C(N)=O (centres unmarked) [N-methyl-Tyr-NH2]
- inhibition of formation of PYY(3-35) (plasma carboxypeptidase): did not inhibit

Compound: CC[C@H](C)[C@H](NC(=O)[C@H](CO)NC(=O)[C@H](Cc1ccc(O)cc1)NC(=O)[C@H](CC(=O)O)NC(=O)[C@H](CO)NC(=O)[C@@H](NC(=O)[C@H](Cc1ccccc1)NC(=O)[C@@H](NC(=O)CNC(=O)[C@H](CCC(=O)O)NC(=O)[C@H](C)NC(=O)[C@@H](N)Cc1ccc(O)cc1)[C@@H](C)O)[C@@H](C)CC)C(=O)N[C@@H](C)C(=O)N[C@@H](CC(C)C)C(=O)N[C@@H](CC(=O)O)C(=O)N[C@@H](CCCCN)C(=O)N[C@H](C(=O)N[C@@H](Cc1c[nH]cn1)C(=O)N[C@@H](CCC(N)=O)C(=O)N[C@@H](CCC(N)=O)C(=O)N[C@@H](CC(=O)O)C(=O)N[C@@H](Cc1ccccc1)C(=O)N[C@H](C(=O)N[C@@H](CC(N)=O)C(=O)N[C@@H](Cc1c[nH]c2ccccc12)C(=O)N[C@@H](CC(C)C)C(=O)N[C@@H](CC(C)C)C(=O)N[C@@H](C)C(=O)N[C@@H](CCC(N)=O)C(=O)N[C@@H](CCCCN)C(=O)NCCOCCOCC(=O)NCCCC[C@H](N)C(=O)N1CCC[C@H]1C#N)C(C)C)[C@@H](C)CC [[Leu^14]GIP(1-30)-Ado-Lys-N-ε-(2-(S)-cyano pyrrolidyl)] (H-YAEGTFISDYSIALDKIHQQDFVNWLLAQK[AEEA][εLys]-{Pyrrolidine(2S-CN)})
- inhibition at 0.01 µM [3]: 100%
- IC50 (Recombinant DPP-IV): 109 ± 1 nM

Compound: ^36N-methyl-Tyr-amide-PYY(22-36) (ASLRHYLNLVTRQRY; HELM PEPTIDE1{A.S.L.R.H.Y.L.N.L.V.T.R.Q.R.[meY].[am]}$$$$V2.0; N-terminus assumed; SMILES CC(C)C[C@H](NC(=O)[C@H](CO)NC(=O)[C@H](C)N)C(=O)N[C@@H](CCCNC(=N)N)C(=O)N[C@@H](Cc1c[nH]cn1)C(=O)N[C@@H](Cc1ccc(O)cc1)C(=O)N[C@@H](CC(C)C)C(=O)N[C@@H](CC(N)=O)C(=O)N[C@@H](CC(C)C)C(=O)N[C@H](C(=O)N[C@H](C(=O)N[C@@H](CCCNC(=N)N)C(=O)N[C@@H](CCC(N)=O)C(=O)N[C@@H](CCCNC(=N)N)C(=O)N(C)[C@@H](Cc1ccc(O)cc1)C(N)=O)[C@@H](C)O)C(C)C) [N-terminal truncation of ^36N-methyl-Tyr-amide-PYY(3-36)]
- inhibition of formation of PYY(3-35) (plasma carboxypeptidase): measurable but lower activity

Compound: ^36N-methyl-Tyr-amide-PYY(34-36) (QRY; HELM PEPTIDE1{Q.R.[meY].[am]}$$$$V2.0; N-terminus assumed; SMILES CN(C(=O)[C@H](CCCNC(=N)N)NC(=O)[C@@H](N)CCC(N)=O)[C@@H](Cc1ccc(O)cc1)C(N)=O) [N-terminal truncation of ^36N-methyl-Tyr-amide-PYY(3-36)]
- inhibition of formation of PYY(3-35) (plasma carboxypeptidase): did not inhibit
